Entries after “also recorded” stand apart in the source; their conditions may differ.

Results on 1 compound are retold here after patent US7977361B2, “Nitro-imidazole hypoxia imaging agent” (Siemens Medical Solutions USA, Inc., priority 2007, dated 2011).

Data set [1] in a line: Bio-distribution and bio-stability of Compound 1 in mice (LC/MS of blood, urine and organs after IV injection). The class given is in vivo. The conditions noted are these: mouse; for tissue uptake at 30 min: 1 µmol per animal. As for the experimental part: Method: Compound 1 was dissolved in DMSO to achieve a 100 mM stock solution. This was then diluted with 1× PBS containing 3% Solutol to achieve a concentration of 5 mM. 200 μl of 5 mM Compound 1 solution was injected into the tail vein in mice animals under isofluorane anesthesia. The in vivo uptake was two hours.
Blood and urine samples were collected at 30, 60, 90 and 120 minutes. Samples were immediately placed on ice to prevent compound degradation. After blood and urine sampling were completed at 120 minutes, the mouse was sacrificed by cervical dislocation. The following whole organs were harvested within 30-40 minutes in the following order; lower GI, upper GI, spleen, pancreas, gall bladder, liver, heart, kidneys, lungs, about 0.3 gram of muscle from both legs, about 0.4 gram of skin at the back, the entire brain and about 0.4 gram of fat inside the abdomen.
(§1) To the samples were added a proportional amount of lysis buffer (about 5 ml/gram tissue) before the tissue was homogenized using a powered homogenizer, 50 μL of lysis buffer was added to the blood and urine samples, followed by briefly vortexing. 200 μl of organ homogenate was sampled into a 1.5 ml Eppendorf tube. All samples were heated at 100° C. for 2 minutes to denature the proteins and then placed in ice for 15 minutes. Then 40 μl of formic acid was added to the organ samples and 20 μl was added to the blood and urine samples. All tubes were vortexed to achieve complete mixing of sample with acid. Samples were then placed on ice for 15 minutes before being centrifuged at 13000 rpm for 15 minutes at 4° C. 30 μl of the supernatant was transferred to an HPLC vial for MSD analysis.
(§2) A standard curve with a wide range of Compound 1 concentrations was prepared using the same method described above for tissue lysate treatment. The corresponding peak of the compound was identified first in the standards. The areas of the peaks were measured and converted into a standard correlation curve for estimation of Compound 1 concentration in the samples. The amount of compound in each sample is expressed as % injected dose/gram tissue (% ID/g tissue).

Data set [2] is described as follows: Plasma and urine pharmacology study of Compound 1 in rats (LC/MS after IV injection). The conditions noted are these: rat. The class given is in vivo. The method, then: as §1, §2
Method: Compound 1 solution was prepared as described previously. One ml of 10 mM Compound 1 solution was injected intravenously (tail vein) into rats under isofluorane anesthesia. Blood and urine samples were collected before injection and at 15, 30, 60, 90 and 120 minutes after injection. Samples treatments and LC/MS measurement are the same as the mouse samples described in 1A.

For data set [3], the system named is Ls174T human colorectal adenocarcinoma. The data set can be described thus: Cytotoxicity assay (MTT reduction), Ls174T cells. The class given is cell-based. The following applies: 0-10000 nM, 24 hours. The method, then:
(§3) Method: The assay is based on the ability of viable cells to reduce 3-[4,5-dimethylthiazol-2-yl]-2,5-diphenyl tetrazolium bromide to colored formazan crystals. Ls174T human colorectal adenocarcinoma, A172 human brain glioblastoma, MRC5 human normal lung fibroblast, and ALM12 mouse normal liver cell lines were selected for this study. Cells were cultured with different concentration of Compound 1 (0, 100, 500, 1000, 5000, 10000 nM) for 24 hours and then incubated with 0.5 mg/ml of 3-[4,5-dimethylthiazol-2-yl]-2,5-diphenyl tetrazolium bromide for 1 hour. Cells were lysed and formazan crystals were dissolved with 2-propanol for 1 hour and the optical density of the resultant colored 2-propanol was measured. The percentages of cell survival were calculated based on the optical densities.

The subject of data set [4] is A172 human brain glioblastoma. The data set can be described thus: Cytotoxicity assay (MTT reduction), A172 cells. Type of data set: cell-based. The conditions noted are these: A172, 0-10000 nM, 24 hours. The method, then:
as §3
In general terms: Tetrazolium assays rely on reduction of a dye to a coloured formazan, in cell work by metabolically active cells.

For data set [5], the system named is MRC5 human normal lung fibroblast. Kind of data set: Cytotoxicity assay (MTT reduction), MRC5 cells. Type of data set: cell-based. The following applies: MRC5, 0-10000 nM, 24 hours. The method, then:
as §3

For data set [6], the system named is ALM12 mouse normal liver cell lines. The data set can be described thus: Cytotoxicity assay (MTT reduction), ALM12 cells. Type of data set: cell-based. The following applies: ALM12, 0-10000 nM, 24 hours. The method, then:
as §3

`O=[N+]([O-])c1nccn1Cc1cn(C(CO)CF)nn1` (stereo not drawn) [Compound 1, 3-Fluoro-2-(4-((2-nitro-1H-imidazol-1-yl)methyl)-1H-1,2,3-triazol-1-yl)propan-1-ol]: the tissue uptake at 30 min in data set [1] (IV tail vein 200 μl of 5 mM, urine at 30 minutes, read-out: urine level) was 95.6 %ID/g; in data set [1] (whole blood, IV tail vein 200 μl of 5 mM, blood at 30 minutes, read-out: blood level), 4.1 %ID/g; in data set [2] (10 µmol per animal, IV tail vein 1 ml of 10 mM, urine at 30 minute, read-out: urine level) it was 5.3 %ID/g; in data set [2] (whole blood, 10 µmol per animal, IV tail vein 1 ml of 10 mM, blood at 30 minutes, read-out: blood level), 0.67 %ID/g. Also, in data set [1], the “blood clearance and urine excretion” value was “fast”. Moreover, the entries for the “urine excretion index (averaged urine % ID/g divided by blood % ID/g at 120 minute)” value in data set [1] and in data set [2] were 88.69 and 36.62, respectively. Besides, in data set [1] (IV tail vein 200 μl of 5 mM, blood at 120 minutes), the blood level stood at 0.59%. The “levels in gall bladder and GI system” value in data set [1] (organs harvested after 120 minutes) is listed as “low”. Also, the “urine excretion and blood clearance” value in data set [2] was “fast”. Further, the tissue uptake at 120 min in data set [2] (whole blood, 10 µmol per animal, IV tail vein 1 ml of 10 mM, blood at 120 minutes, read-out: blood level) was 0.15 %ID/g. The “cytotoxicity: numbers of viable cells vs untreated control cells” value in data set [3] is given as “no cytotoxic effects; also recorded: no difference”; in data set [4], “no cytotoxic effects; also recorded: no difference”; in data set [5], “no cytotoxic effects; also recorded: no difference”; in data set [6], “no difference”.
